Results on 14 compounds are retold here after patent US10603332B2, “Anti-obesity composition” (SUNSTAR INC., priority 2013, dated 2020).

This experiment deals with preadipocyte 3T3-L1 cells. Nature of the experiment: Suppression of fat droplet accumulation in adipocytes (Oil Red O staining, OD 490 nm). In kind it is cell-based, mouse. Particulars: for Relative amount of fat accumulation: 3T3-L1 adipocytes, samples added Day 0 to Day 7 or 8 at the concentrations of each (Comparative) Example, medium to which nothing was added regarded as 100; for amount of fat accumulation: control (Comparative Example 1b) = 100; for relative amount of fat accumulation in adipocytes: control = 100. On the procedure:
Because they are immortalized cells, they can be mass-produced as fibroblasts before induction of differentiation. […] The passage media used were passage medium A (DMEM (4.5 g/L Glu), (Sigma, glucose, […]), 10% BS (Gibco, 16170), and 1% antibiotic (Gibco, Antibiotic-Antimycotic, 15240-062)) and passage medium B (DMEM (4.5 g/L Glu), 10% FBS (Biowest, S1560), and 1% antibiotic). The differentiation-inducing medium used was prepared by adding a 10-μg/mL insulin solution (Wako, 093-06351), 0.25 μM Dexamethasone (Sigma, D4902), and 0.11-mg/mL 3-isobutyl-1-methylxanthine (Sigma, 15879) to passage medium B. The differentiation-promoting medium used was prepared by adding a 5-μg/mL insulin solution to passage medium B. The differentiation-inducing medium and the differentiation-promoting medium were prepared before use. The oleuropein used was an “oleuropein” reagent available from Sigma. In the experiment, the oleuropein was used in such an amount that the final concentration was 50 μM. The hydroxytyrosol used was a “hydroxytyrosol” reagent available from Sigma. In the experiment, the hydroxytyrosol was used in such an amount that the final concentration was 25 μM. The willow extract used was a water extract (dry powder) of young branches including sprouts of willow (a plant mixture containing at least one or more members selected from Salix daphnoides, Salix purpurea, Salix fragilis, and Salix alba). In the experiment, the extract was diluted with the medium so that the final concentrations were 2.5, 5, 12.5, 25, 50, 100, and 200 μg/mL. The sulforaphane used was a “sulforaphane” reagent available from Sigma. In the experiment, a 100-mM DMSO solution was prepared, and diluted with the medium. A 5-mM γ-orizanol solution was prepared, and diluted with the medium. […] Embryo mouse) was grown in passage medium A. […] Sumilon Celltight C-1) so that the concentration was 2.5×10^4 cells/well. The cells were cultured for 2 days at 37° C. in the presence of 5% CO2. Thereafter, the medium was replaced with passage medium B. After confluent growth, culture was continued for about 2 days in passage medium B, and the medium was replaced with the differentiation-inducing medium (Day 0). Within 48 hours after the differentiation of the cells was induced in the differentiation-inducing medium, the medium was replaced with the differentiation-promoting medium (Day 2). Each sample was continuously added from the time of the replacement of the differentiation-inducing medium (Day 0) to Day 7 or 8. Cold 10% formalin/PBS was prepared by adding 10% (v/v) formalin to PBS (phosphate buffered saline) and adjusting the pH to 7.4, and then stored at 4° C. In this experiment, a 10% neutral buffered formalin solution (Wako, 060-03845) was used. The stain solution used was a 0.5% Oil Red O/isopropanol solution. Oil Red O (Wako, 154-02072) was dissolved in isopropanol (Sigma) by shaking to prepare a saturated solution. The 0.5% Oil Red 0/isopropanol solution and distilled water were mixed at a ratio of 3:2 immediately before use (preparation before use). The 3T3-L1 cells in the well plate cultured to Day 7 or 8 by the above culture method were used. Cold 10% formalin/PBS (0.5 mL/well) was added to the well plate containing the medium, and allowed to stand at room temperature. After the medium was removed, cold 10% formalin/PBS (0.5 mL/well) was newly added, and allowed to stand at room temperature. After the formalin solution was removed, the well plate was washed 2 or 3 times with distilled water (1 mL/well) to completely remove the remaining […]. After the well plate was washed once with 60% isopropanol (0.5 mL/well), the filtered stain solution was added at 1 mL/well, and allowed to stand at room temperature. After staining, the well plate was washed once with 60% isopropanol (0.5 mL/well), and washed 2 or 3 times with distilled water (1 mL/well). […] The eluted isopropanol solution was measured by a microplate reader at OD 490 nm. […]

As to `C/C=C1/[C@H](O[C@@H]2O[C@H](CO)[C@@H](O)[C@H](O)[C@H]2O)OC=C(C(=O)OC)[C@H]1CC(=O)OCCc1ccc(O)c(O)c1` [1a, Oleuropein], the “Relative amount of fat accumulation” value stood at 99.9.

In the case of `OCCc1ccc(O)c(O)c1` [2b, Hydroxytyrosol], the “Relative amount of fat accumulation” value was 99.3.

On to `C[S+]([O-])CCCCN=C=S` (stereo not shown) [3a, Sulforaphane], for which the “Relative amount of fat accumulation” value is given as 110.7.

With `OCCc1ccc(O)c(O)c1` [3b, Hydroxytyrosol], the “Relative amount of fat accumulation” value worked out at 78.4.

In the case of `C[S+]([O-])CCCCN=C=S` (stereo not shown) [5a, Sulforaphane], the “Relative amount of fat accumulation” value was 100.9.

Take `C[S+]([O-])CCCCN=C=S` (stereo not shown) [5b, Sulforaphane]: the “Relative amount of fat accumulation” value is 104.8.

`C[S+]([O-])CCCCN=C=S` (stereo not shown) [6b, Sulforaphane]: the “Relative amount of fat accumulation” value came out at 100.8.

For the compound `C[S+]([O-])CCCCN=C=S` (stereo not shown) [Comparative Example 4a, Sulforaphane], the “Relative amount of fat accumulation” value stood at 109.8.

In the case of `OCCc1ccc(O)c(O)c1` [hydroxytyrosol], the “amount of fat accumulation” value (25 μM added alone) is “around 100”. The “fat accumulation-suppressing effect higher than that of the control” value (37.5 μM added alone) is “about 25%”.

For `C/C=C1/[C@H](O[C@@H]2O[C@H](CO)[C@@H](O)[C@H](O)[C@H]2O)OC=C(C(=O)OC)[C@H]1CC(=O)OCCc1ccc(O)c(O)c1` [oleuropein], the “relative amount of fat accumulation in adipocytes” value (50 μM added alone) is “around 100”.

`C[S+]([O-])CCCCN=C=S` (stereo not shown) [sulforaphane]: where the note is “0.25 or 2.5 μM added alone”, the “amount of fat accumulation” value is on record as “around 100”. In addition, the “relative amount of fat accumulation in adipocytes” value (0.5 to 1.25 μM added alone) is reported as “around 100”.

Take γ-Orizanol [7b]: the “Relative amount of fat accumulation” value came out at 78.5.

Take γ-Orizanol [Comparative Example 6a]: the “Relative amount of fat accumulation” value is listed as 51.4.

On to γ-orizanol, for which, where the note is “0.5 μM added alone”, the “fat accumulation-suppressing effect higher than that of the control” value is reported as “about 25%”.
